Test results from patent US20110003753A1, “COMPOSITIONS AND METHODS FOR DISRUPTING THE FUNCTION OF THE TRANSCRIPTIONAL REPRESSOR COMPONENT Sin3A-PAH2 DOMAIN TO INDUCE DIFFERENTIATION AND GROWTH INHIBITION IN BREAST CANCER” (SAMUEL WAXMAN CANCER RESEARCH FOUNDATION, priority 2009, published 2011).

Legend:
MDA-MB-231 = assay: Phenotypic (morphology) changes in culture; type: cell-based, human; conditions: cells in culture
From the text: (§1) FIG. 1: Expression of a decoy peptide corresponding to MAD Sin3 interaction domain (SID) induces markers of differentiation and contact inhibition in MDA-MB-231 breast cancer cells. A. Schematic of the SID peptides and expression constructs used in this study. Shown in the upper panel are the design and sequence of the Tat-SID peptide and Tat-SID^SCR scrambled control. The Tat-SID peptide corresponds to amino acids 5-24 of MAD. This sequence binds Sin3 PAH2 with high affinity and has been previously used to study SID-PAH2 interactions in vitro. Peptides contain a leader sequence (YGRKKRRQGGG, SEQ ID No. 5) corresponding to the human immunodeficiency virus type 1 Tat arginine-rich RNA-binding motif (ARM), which has been mutated (RRR>GGG) to improve nuclear entry. B. Morphological changes induced by SID in MDA-MB-231 and MMTV-Myc. […] D. Confocal IF analyses showing the re-expression of membrane-associated E-cadherin induced by the expression of SID in MDA-MB-231 cells (top row) and MMTV-Myc cells (bottom row) E. Re-expression of nuclear RARβ in MDA-MB-231 cells detected by immunofluorescence microscopy. […]

[1] = test system: MMTV-Myc mouse breast cancer cells; assay: Phenotypic (morphology) changes in culture; type: cell-based
From the text: as §1

Sequence: YGRKKRRQGGGVRMNIQMLLEAADYLERRER [SID peptide]
- phenotypic change of cell morphology (MDA-MB-231): cobblestone monolayers and well defined cell-cell contact accompanied by cell growth contact inhibition
- phenotypic change of cell morphology [1]: cobblestone monolayers and well defined cell-cell contact accompanied by cell growth contact inhibition
